Test results: patent US4812483A, “Insecticidal alkenes” (Imperial Chemical Industries PLC, priority 1985, dated 1989)

Assays:
Format in all cases: in vivo
Myzus persicae (aphids) = experiment: Contact test, mortality of aphids (MP); conditions: 48 h, leaf, 2 days, read-out: grading of mortality, MP
Experimental: (§1) The activity of the compound was determined using a variety of insect pests. The compound was used in the form of liquid preparations containing 500 parts per million (ppm) by weight of the compound. The preparations were made by dissolving the compound in acetone and diluting the solutions with water containing 0.01% by weight of a wetting agent sold under the trade name "LISSAPOL" NX until the liquid preparations contained the required concentration of the compound. "Lissapol" is a Registered Trade Mark.
(§2) The test procedure adopted with regard to each pest was basically the same and comprised supporting a number of the pests on a medium which was usually a host plant or a foodstuff on which the pests feed, and treating either or both the pests and the medium with the preparations. The mortality of the pests was then assessed at periods usually varying from one to three days after the treatment.
(§3) The results of the tests are given in Table III for each of the compounds, at the rate in parts per million given in the second column as a grading of mortality designated as A, B or C wherein A indicates 80-100% mortality or knockdown, B indicates 50-79% mortality or knockdown and C indicates less than 50% mortality or knockdown.
(§4) In Table III the pest organism used is designated by a letter code and the pests species, the support medium or food, and the type and duration of test is given in Table II.

[1] = tested on: Tetranychus urticae (red spider mites - adult); experiment: Contact test, mortality of red spider mites (TU); conditions: 72 h, French bean leaf, 3 days, read-out: grading of mortality, TU
Experimental: as §1, §2, §3, §4
(red spider mites - adult)

[2] = tested on: Musca domestica (houseflies - adults); experiment: Contact test, mortality of houseflies (MD); conditions: 24 h, cotton wool/sugar, 1 day, read-out: grading of mortality, MD
Experimental: as §1, §2, §3, §4

[3] = tested on: Blattella germanica (cockroach nymphs); experiment: Residual test, mortality of cockroach nymphs (BG); conditions: 72 h, plastic pot, 3 days, read-out: grading of mortality, BG
Experimental: as §1, §2, §3, §4

[4] = tested on: Chilo partellurs (Stem borers); experiment: Residual test, mortality of stem borers (CP); conditions: 72 h, oil seed rape leaf, 3 days, read-out: grading of mortality, CP
Experimental: as §1, §2, §3, §4

[5] = tested on: Diabrotica balteata (rootworm larvae); experiment: Residual test, mortality of rootworm larvae (DB); conditions: 72 h, filter paper/maize seed, 3 days, read-out: grading of mortality, DB
Experimental: as §1, §2, §3, §4

[6] = tested on: Nilaparvata lugens (green leaf hopper); experiment: Contact test, mortality of Nilaparvata lugens (NL); conditions: 144 h, cabbage leaf, 6 days, read-out: grading of mortality, NL
Experimental: as §1, §2, §3, §4

[7] = tested on: Heliothis viriscens (tobacco budworm); experiment: whole plant or invertebrate; conditions: in Gossypium hirsutum, 72 h, read-out: grading of mortality, HV
Experimental: as §1, §2, §3, §4

Structure (SMILES) | mortality at 500 ppm (Myzus persicae (aphids)) [%] | mortality at 500 ppm [1] [%] | mortality at 500 ppm [2] [%] | mortality at 500 ppm [3] [%] | mortality at 500 ppm [4] [%] | mortality at 500 ppm [5] [%] | mortality at 500 ppm [6] [%] | mortality at 500 ppm [7] [%]
CC(C)(C=CCl)COCc1cccc(Oc2ccccc2)c1 [Compound 10, 2,2-dimethyl-1-(3-phenoxybenzyloxy)-4-chlorobut-3-ene] | < 50 | < 50 | 50 to 79 | < 50 | < 50 | 80 to 100 | 80 to 100 | 
CC(C)(C=C(Cl)Cl)COCc1cccc(Oc2ccccc2)c1 [Compound 4, 2,2-dimethyl-1-(3-phenoxybenzyloxy)-4,4-dichlorobut-3-ene] | < 50 | < 50 | < 50 | < 50 |  | < 50 | 80 to 100 | < 50
C=CC(C)(C)COCc1cccc(Oc2ccccc2)c1 [Compound 2, 3,3-Dimethyl-4-(3-phenoxybenzyloxy)but-1-ene] | < 50 |  | 80 to 100 | < 50 |  | 80 to 100 | 80 to 100 | < 50
CC(C)(C=C(F)F)COCc1cccc(Oc2ccccc2)c1 [Compound 17] | < 50 | < 50 |  | 80 to 100 |  | 80 to 100 | 80 to 100 | < 50
C=CC1(COCc2cccc(Oc3ccccc3)c2)CC1 [Compound 6, 1-(3-phenoxybenzyloxymethyl)-1-vinylcyclopropane] | < 50 | < 50 | < 50 | < 50 | < 50 | < 50 | 50 to 79 | < 50
CC(C)(C=C(Cl)Cl)COCc1ccc(F)c(Cc2ccccc2)c1 [Compound 20, 2,2-dimethyl-1-(3-benzyl-4-fluorobenzyloxy)-4,4-dichlorobut-3-ene] | < 50 | < 50 |  | < 50 |  | < 50 | 80 to 100 | < 50
CC(C)(C=C(Cl)Cl)COCc1ccc(F)c(Oc2ccccc2)c1 [Compound 1, 2,2-dimethyl-1-(4-fluoro-3-phenoxybenzyloxy)-4,4-dichlorobut-3-ene] | < 50 |  | 80 to 100 | 80 to 100 | 80 to 100 | 80 to 100 | 80 to 100 | 80 to 100
CC(C)(C=C(F)F)COCc1ccc(F)c(Oc2ccccc2)c1 [Compound 15, 2,2-dimethyl-1-(4-fluoro-3-phenoxybenzyloxy)-4,4-difluorobut-3-ene] | 80 to 100 | 80 to 100 | 80 to 100 | 80 to 100 |  | 80 to 100 | 80 to 100 | 80 to 100
C=CC(C)(CC)COCc1cccc(Oc2ccccc2)c1 (stereo not shown) [Compound 8, 3-Ethyl-3-methyl-4(3-phenoxybenzyloxy)but-1-ene] | < 50 | 80 to 100 | 80 to 100 | < 50 |  | 80 to 100 | 80 to 100 | < 50
CC(C)(C=C(Cl)Cl)COCc1cccc(Oc2ccccc2)n1 [Compound 13, 2,2-dimethyl-1-(6-phenoxypyrid-2-yl)methoxy-4,4-dichlorobut-3-ene] | 50 to 79 | < 50 | 50 to 79 | 80 to 100 |  | 80 to 100 | 80 to 100 | 80 to 100
CC(C)(C=C(Br)Br)COCc1cccc(Oc2ccccc2)c1 [Compound 3, 2,2-dimethyl-1-(3-phenoxybenzyloxy)-4,4-dibromobut-3-ene] | < 50 |  | < 50 | < 50 | 80 to 100 | < 50 | 50 to 79 | < 50
CC(C)(C=C(F)Cl)COCc1cccc(Oc2ccccc2)c1 [Compound 11, Z,E-2,2-dimethyl-1-(3-phenoxybenzyloxy)-4-chloro-4-fluorobut-3-ene] | < 50 | < 50 | 50 to 79 | 50 to 79 |  | 80 to 100 | 80 to 100 | 50 to 79
C=CC(C)(C)COCc1cccc(Oc2ccccc2)n1 [Compound 12, 3,3-Dimethyl-4-(6-phenoxypyrid-2-yl)methoxy-but-1-ene] | < 50 | < 50 | < 50 | < 50 |  | 80 to 100 | 80 to 100 | < 50
CC(C)(C=C(F)Cl)COCc1cccc(Oc2ccccc2)n1 [Compound 19, E,Z-2,2-dimethyl-1-(6-phenoxypyrid-2-yl)methoxy-4-chloro-4-fluorobut-3-ene] | 50 to 79 | 50 to 79 |  | 50 to 79 |  | 80 to 100 | 80 to 100 | < 50
C=CC(C)(C)COCc1ccc(F)c(Oc2ccccc2)c1 [Compound 5, 3,3-dimethyl-4-(4-fluoro-3-phenoxybenzyloxy)but-1-ene] | 80 to 100 | 80 to 100 | 80 to 100 | 80 to 100 |  | 80 to 100 | 80 to 100 | < 50
ClC(Cl)=CC1(COCc2cccc(Oc3ccccc3)c2)CC1 [Compound 9, 1-(2,2-dichlorovinyl)-1-(3-phenoxybenzyloxymethyl)cyclopropane] | 80 to 100 | < 50 | 80 to 100 | 50 to 79 |  | 50 to 79 | 80 to 100 | < 50
C=CC(C)(C)COCc1ccc(F)c(Cc2ccccc2)c1 [Compound 14, 3,3-Dimethyl-4-(3-benzyl-4-fluorobenzyloxy)but-1-ene] | < 50 | < 50 | 80 to 100 | 50 to 79 |  | 80 to 100 | 80 to 100 | < 50
CC(C)(C=C(F)F)COCc1ccc(F)c(Cc2ccccc2)c1 [Compound 18] | < 50 | 50 to 79 |  | 80 to 100 |  | 80 to 100 | 80 to 100 | 80 to 100
CC(C)(C=C(F)F)COCc1cccc(Oc2ccccc2)n1 [Compound 16, 2,2-dimethyl-1-(6-phenoxypyrid-2-yl)methoxy-1,1-difluorobut-1-ene] | 80 to 100 | 80 to 100 |  | 80 to 100 |  | 80 to 100 | 80 to 100 | 80 to 100
CC(C)(/C=C/Br)COCc1cccc(Oc2ccccc2)c1 [Compound 7, E-2,2-dimethyl-1-(3-phenoxybenzyloxy)-4-bromobut-3-ene] | < 50 | < 50 | < 50 | < 50 | < 50 | < 50 | 50 to 79 | < 50
